# Measurements: patent publication US20120184542A1, “PYRIDO PYRIMIDINES” (priority 2011, published 2012)
# Counter-ions that a name gives are not always drawn. Like-named read-outs stand apart in the source and are kept apart here.
# Columns and labels:
# [1] = test system: SW620 human colon cancer cells; assay: SW620 Cell Viability Assay; format: cell-based; settings: CellTiter-Glo, 4 days incubation, read-out: Cellular EC50 (μM) SW620
# Protocol: Some cells (S—) were allowed to attach for 24 hrs, serum starved for 48 hrs, and then followed with drug treatments Test Compound Solutions were Prepared in Regular Corresponding Media Supplemented with Serum 2. […] Viability Assay: This assay was performed as follows: • Transfer 50 μL of test compound solution per well from the test compound plate onto the cell plate prepared in Step #1. • Mix the plate with treated cells by pipetting up and down three times with 200 μL multi-channel pipette. • Incubate the cells in 5% CO2 incubator @ 37° C. for 4 days. • Run the CellTiter-Glo™ Luminescent Cell Viability Assay.
# Human DYRK1A = biological target: T1, Human DYRK1A (Homo sapiens, UniProt Q13627); assay: DYRK1A Kinase TR-FRET (IMAP-Tb) Assay; format: biochemical; settings: TR-FRET (IMAP-Tb); ATP 70 μM; 37° C. 60 minutes; read-out: Enzyme IC50 (μM) DYRK1A
# T1 construct: purchased Invitrogen PV3997
# Procedure, shortened: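 Recombinant human DYRK1A phosphorylated fluorescent substrate peptide (1.0 μM) with ATP in 10 mM HEPES pH 7.0, 50 mM NaCl, 5 mM MgCl2, 1 mM DTT, 1 mM NaVO4, 0.02% BSA for 60 min at 37 °C. Phosphopeptide detected by IMAP terbium TR-FRET; IC50 reported.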
# Human DYRK1B = biological target: T2, Human DYRK1B (Homo sapiens, UniProt Q9Y463); assay: DYRK1B Kinase TR-FRET (IMAP-Tb) Assay; format: biochemical; settings: TR-FRET (IMAP-Tb); ATP 70 μM; 37° C. 60 minutes; read-out: Enzyme IC50 (μM) DYRK1B
# T2 construct: purchased Invitrogen PR8350B (former PV4649)
# T2 sequence (Q9Y463 whole entry): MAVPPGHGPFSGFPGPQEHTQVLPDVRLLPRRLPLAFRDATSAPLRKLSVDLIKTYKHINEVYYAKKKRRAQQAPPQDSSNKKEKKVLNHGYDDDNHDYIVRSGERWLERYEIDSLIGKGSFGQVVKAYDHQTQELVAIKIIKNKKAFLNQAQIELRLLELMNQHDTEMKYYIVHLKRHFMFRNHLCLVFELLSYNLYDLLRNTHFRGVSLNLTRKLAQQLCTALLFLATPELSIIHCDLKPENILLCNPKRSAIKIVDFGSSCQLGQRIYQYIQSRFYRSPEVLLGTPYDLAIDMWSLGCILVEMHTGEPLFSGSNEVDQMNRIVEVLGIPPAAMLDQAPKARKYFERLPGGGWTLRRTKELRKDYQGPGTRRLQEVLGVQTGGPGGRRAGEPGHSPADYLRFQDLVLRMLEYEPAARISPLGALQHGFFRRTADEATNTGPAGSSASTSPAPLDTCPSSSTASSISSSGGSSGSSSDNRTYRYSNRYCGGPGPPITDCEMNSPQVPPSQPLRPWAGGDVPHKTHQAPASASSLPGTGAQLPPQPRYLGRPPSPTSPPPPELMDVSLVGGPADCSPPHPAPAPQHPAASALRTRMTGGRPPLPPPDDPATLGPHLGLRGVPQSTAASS
SMILES,"EC50 ([1]; Homo sapiens, SW-620, 96 h)",IC50 (Human DYRK1A),IC50 (Human DYRK1B),EC50 [1],EC50 ([1]; hydrochloride)
"CN1CCN(c2ncc3cc(C(=O)Nc4cc(C(=O)NCc5cccc(Cl)c5)ccc4Cl)c(=O)[nH]c3n2)CC1 [Example 75, 2-(4-Methyl-piperazin-1-yl)-7-oxo-7,8-dihydro-pyrido[2,3-d]pyrimidine-6-carboxylic acid [2-chloro-5-(3-chloro-benzylcarbamoyl)-phenyl]-amide]",0.563 µM,0.0211 µM,0.103 µM,–,–
"O=C(NCc1cccc(Cl)c1)c1ccc(Cl)c(NC(=O)c2cc3cnc(OCCCN4CCOCC4)nc3[nH]c2=O)c1 [Example 80, 2-(3-Morpholin-4-yl-propoxy)-7-oxo-7,8-dihydro-pyrido[2,3-d]pyrimidine-6-carboxylic acid [2-chloro-5-(3-chloro-benzylcarbamoyl)-phenyl]-amide]",0.325 µM,0.0046 µM,0.231 µM,–,–
"O=C(NCc1cccc(Cl)c1)c1ccc(Cl)c(NC(=O)c2cc3cnc(OCCN4CCOCC4)nc3[nH]c2=O)c1 [Example 81, 2-(2-Morpholin-4-yl-ethoxy)-7-oxo-7,8-dihydro-pyrido[2,3-d]pyrimidine-6-carboxylic acid [2-chloro-5-(3-chloro-benzylcarbamoyl)-phenyl]-amide]",0.651 µM,0.0313 µM,0.128 µM,–,–
"COc1ncc2cc(C(=O)Nc3cc(C(=O)NC(CN)c4cccc(Cl)c4)ccc3Cl)c(=O)[nH]c2n1 (stereo not drawn) [Example 85, 2-Methoxy-7-oxo-7,8-dihydro-pyrido[2,3-d]pyrimidine-6-carboxylic acid {5-[2-amino-1-(3-chloro-phenyl)-ethylcarbamoyl]-2-chloro-phenyl}-amide]",0.524 µM,0.03 µM,0.029 µM,–,–
"O=C(NCc1cccc(Cl)c1)c1ccc(Cl)c(NC(=O)c2cc3cnc(N4CCOCC4)nc3[nH]c2=O)c1 [Example 86, 2-Morpholin-4-yl-7-oxo-7,8-dihydro-pyrido[2,3-d]pyrimidine-6-carboxylic acid [2-chloro-5-(3-chloro-benzylcarbamoyl)-phenyl]-amide]",> 10 µM,0.07 µM,3.25 µM,–,–
"CN1CCN(CCOc2ncc3cc(C(=O)Nc4cc(C(=O)NCc5cccc(Cl)c5)ccc4Cl)c(=O)[nH]c3n2)CC1 [Example 87, 2-[2-(4-Methyl-piperazin-1-yl)-ethoxy]-7-oxo-7,8-dihydro-pyrido[2,3-d]pyrimidine-6-carboxylic acid [2-chloro-5-(3-chloro-benzylcarbamoyl)-phenyl]amide]",0.186 µM,0.061 µM,0.0859 µM,–,–
"O=C(NCc1cccc(Cl)c1)c1ccc(Cl)c(NC(=O)c2cc3cnc(NCCN4CCCC4)nc3[nH]c2=O)c1 [Example 89, 7-Oxo-2-(2-pyrrolidin-1-yl-ethylamino)-7,8-dihydro-pyrido[2,3-d]pyrimidine-6-carboxylic acid [2-chloro-5-(3-chloro-benzylcarbamoyl)-phenyl]amide]",0.192 µM,0.0189 µM,0.023 µM,–,–
"O=C(NCc1cccc(Cl)c1)c1ccc(Cl)c(NC(=O)c2cc3cnc(NCCCN4CCOCC4)nc3[nH]c2=O)c1 [Example 90, 2-(3-Morpholin-4-yl-propylamino)-7-oxo-7,8-dihydro-pyrido[2,3-d]pyrimidine-6-carboxylic acid [2-chloro-5-(3-chloro-benzylcarbamoyl)-phenyl]amide]",0.312 µM,0.0113 µM,0.0523 µM,–,–
"O=C(NCc1cccc(Cl)c1)c1ccc(Cl)c(NC(=O)c2cc3cnc(N[C@H]4CC[C@H](O)CC4)nc3[nH]c2=O)c1 [Example 94, 2-(4-Hydroxy-cyclohexylamino)-7-oxo-7,8-dihydro-pyrido[2,3-d]pyrimidine-6-carboxylic acid [2-chloro-5-(3-chloro-benzylcarbamoyl)-phenyl]amide]",1.13 µM,0.0245 µM,0.0622 µM,–,–
"O=C(NCc1cccc(Cl)c1)c1ccc(Cl)c(NC(=O)c2cc3cnc(N[C@H]4CC[C@@H](O)CC4)nc3[nH]c2=O)c1 [Example 95, 2-(4-Hydroxy-cyclohexylamino)-7-oxo-7,8-dihydro-pyrido[2,3-d]pyrimidine-6-carboxylic acid [2-chloro-5-(3-chloro-benzylcarbamoyl)-phenyl]amide]",0.406 µM,0.0257 µM,0.012 µM,–,–
"NC1CCN(c2ncc3cc(C(=O)Nc4cc(C(=O)NCc5cccc(Cl)c5)ccc4Cl)c(=O)[nH]c3n2)CC1 [Example 97, 2-(4-Amino-piperidin-1-yl)-7-oxo-7,8-dihydro-pyrido[2,3-d]pyrimidine-6-carboxylic acid [2-chloro-5-(3-chloro-benzylcarbamoyl)-phenyl]-amide]",0.0662 µM,0.0448 µM,0.0819 µM,–,–
"CN1CCN(CCNc2ncc3cc(C(=O)Nc4cc(C(=O)NCc5cccc(Cl)c5)ccc4Cl)c(=O)[nH]c3n2)CC1 [Example 99, 2-[2-(4-Methyl-piperazin-1-yl)-ethylamino]-7-oxo-7,8-dihydro-pyrido[2,3-d]pyrimidine-6-carboxylic acid [2-chloro-5-(3-chloro-benzylcarbamoyl)-phenyl]amide]",–,0.0202 µM,0.0347 µM,0.0276 µM,–
"CN1CCN(CCNc2ncc3cc(C(=O)Nc4cc(C(=O)NCc5cccc(Cl)c5)ccc4Cl)c(=O)[nH]c3n2)CC1 [Example 100, N-(2-chloro-5-(3-chlorobenzylcarbamoyl)phenyl)-2-(2-(4-methylpiperazin-1-yl)ethylamino)-7-oxo-7,8-dihydropyrido[2,3-d]pyrimidine-6-carboxamide hydrochloride]",–,0.0381 µM,0.142 µM,–,0.068 µM
"CN1CCN(CCCNc2ncc3cc(C(=O)Nc4cc(C(=O)NCc5cccc(Cl)c5)ccc4Cl)c(=O)[nH]c3n2)CC1 [Example 101, 2-[3-(4-Methyl-piperazin-1-yl)-propylamino]-7-oxo-7,8-dihydro-pyrido[2,3-d]pyrimidine-6-carboxylic acid [2-chloro-5-(3-chloro-benzylcarbamoyl)-phenyl]amide]",0.0663 µM,0.0263 µM,0.0221 µM,–,–
"CN1CCN(CCCNc2ncc3cc(C(=O)Nc4cc(C(=O)NCc5cccc(Cl)c5)ccc4Cl)c(=O)[nH]c3n2)CC1 [Example 102, 2-[3-(4-Methyl-piperazin-1-yl)-propylamino]-7-oxo-7,8-dihydro-pyrido[2,3-d]pyrimidine-6-carboxylic acid [2-chloro-5-(3-chloro-benzylcarbamoyl)-phenyl]-amide hydrochloride]",–,0.0356 µM,0.047 µM,–,0.0531 µM
"O=C(NCc1cccc(Cl)c1)c1ccc(Cl)c(NC(=O)c2cc3cnc(NCCO)nc3[nH]c2=O)c1 [Example 103, N-(2-chloro-5-(3-chlorobenzylcarbamoyl)phenyl)-2-(2-hydroxyethylamino)-7-oxo-7,8-dihydropyrido[2,3-d]pyrimidine-6-carboxamide]",> 10 µM,0.00974 µM,0.0291 µM,–,–
"CN1CCC(CCNc2ncc3cc(C(=O)Nc4cc(C(=O)NCc5cccc(Cl)c5)ccc4Cl)c(=O)[nH]c3n2)CC1 [Example 104, N-(2-chloro-5-(3-chlorobenzylcarbamoyl)phenyl)-2-(2-(1-methylpiperidin-4-yl)ethylamino)-7-oxo-7,8-dihydropyrido[2,3-d]pyrimidine-6-carboxamide]",0.0787 µM,0.0226 µM,0.0613 µM,–,–
"CSc1ncc2cc(C(=O)Nc3cc(C(=O)NC(CN)c4ccccc4)ccc3Cl)c(=O)[nH]c2n1 (stereo not drawn) [Example 105, N-(5-(2-amino-1-phenylethylcarbamoyl)-2-chlorophenyl)-2-(methylthio)-7-oxo-7,8-dihydropyrido[2,3-d]pyrimidine-6-carboxamide]",0.296 µM,0.0096 µM,0.0099 µM,–,–
"CSc1ncc2cc(C(=O)Nc3cc(C(=O)NC(CCN)c4ccccc4)ccc3Cl)c(=O)[nH]c2n1 (stereo not drawn) [Example 107, 2-Methylsulfanyl-7-oxo-7,8-dihydro-pyrido[2,3-d]pyrimidine-6-carboxylic acid [5-(3-amino-1-phenyl-propylcarbamoyl)-2-chloro-phenyl]-amide; hydrochloride]",0.236 µM,0.00467 µM,0.0105 µM,–,–
"CC(=O)N1CCN(c2ncc3cc(C(=O)Nc4cc(C(=O)NCc5cccc(Cl)c5)ccc4Cl)c(=O)[nH]c3n2)CC1 [Example 108, 2-(4-Acetylpiperazin-1-yl)-N-(2-chloro-5-(3-chlorobenzylcarbamoyl)phenyl)-7-oxo-7,8-dihydropyrido[2,3-d]pyrimidine-6-carboxamide]",0.528 µM,0.114 µM,0.056 µM,–,–
"Cc1ncc2cc(C(=O)Nc3cc(C(=O)NC(CN)c4ccccc4)ccc3Cl)c(=O)[nH]c2n1 (stereo not drawn) [Example 114, N-(5-(2-Amino-1-phenylethylcarbamoyl)-2-chlorophenyl)-2-methyl-7-oxo-7,8-dihydropyrido[2,3-d]pyrimidine-6-carboxamide hydrochloride]",1.32 µM,0.0373 µM,0.0146 µM,–,–
